Test results published in PMC11802874, “The hypolipidemic effect of MI-883, the combined CAR agonist/ PXR antagonist, in diet-induced hypercholesterolemia model” (Nature Communications, 2025).
“And” between values parts separate entries of the source, which are not always exact repeats. Equal values may be shown once. “Also recorded” adds a separate entry of the source.

Legend:
[1] = system: humanized PXR-CAR-CYP3A4/3A7 mice fed HCD; experiment: High-cholesterol diet (HCD) study: weights, plasma biochemistry; format: in vivo, mouse; details: for ALP / ALT / AST / Albumin / Bilirubin / Fe / UA / Urea / LDH / BW (Fig. 4g) / Chol (Fig. 4h) / Glu (Fig. 4h) / HDL (Fig. 4h) / LDL (Fig. 4h) / LW (Fig. 4g) / LW/BW (Fig. 4g) / TG (Fig. 4h): individual animals
Method: For experiments with a high-cholesterol diet (HCD), mice (18–26 weeks) were pretreated ad libitum for 2 weeks with diet containing 15% fat and 12.5 g/kg of cholesterol (E15103, ssniff, Soest, Germany) (Fig. 4f). After this period, animals were randomly assigned to two groups (control vehicle-treated and MI-883-treated animals, with 9 males and 7 females per group). Animals were dosed orally with MI-883 (5 mg/kg every other day—Monday, Wednesday, Friday, and the following Monday and Wednesday, for a total of 5 doses) or vehicle alone (5% DMSO/5% PEG300/90% corn oil) via oral gavage three times per week. The animals remained on the HCD during the treatment period. Mice were sacrificed after 5 treatments.
Mice were weighted and tissues (livers, blood, duodenum, jejunum, ileum, white fat) were removed, weighted and snap frozen in liquid nitrogen and stored at –80 °C until analysis. Blood was collected from the retro-orbital sinus of mice under isoflurane anesthesia into heparin-coated tubes (Kabe Laboratortechnik GmbH, Nümbrecht-Elsenroth, Germany) after 3 h fasting and analyzed on AU480 biochemistry analyzer (Beckman Coulter, Brea, USA). Sample preparation for bile acid and cholesterol analyses from tissues or feces is described below. One of the liver lobes was fixed in formalin, embedded in paraffin blocks, sectioned, and subjected to H&E staining. Blood was analyzed as described in Supplementary, Chapter 10.
Blood was collected from the retro-orbital sinus of mice under isoflurane anesthesia into heparin-coated tubes (Kabe Laboratortechnik GmbH, Nümbrecht-Elsenroth, Germany) after 3 hours of fasting. Blood was left for 10 minutes at room temperature, and then kept on ice until centrifugation (5,000 g at 4°C for 10 minutes). The collected plasma was stored at -80 °C until measurement. Lipoprotein levels and other plasmatic parameters were measured on an AU480 biochemistry analyzer (Beckman Coulter, Brea, USA).

[2] = system: PXB-mouse humanized liver mice (human hepatocytes); experiment: PXB-mouse humanized liver mice study; format: in vivo; design: key to BW: body weight in g; Cho / CHO in LDL / CHO in HDL / CHO in VLDL / CHO in Chylom / TG / TG in LDL / TG in HDL / TG in VLDL / TG in Chylo / rel LW: unit not given here
Method: PXB-mouse® are mice with background genotype: cDNA-uPAwild/+/SCID [cDNA-uPAwild/+: B6;129SvEv-Plau, SCID: C.B-17/Icr-scid /scid Jcl]. Mice contain human hepatocytes with an estimated replacement index of 70% or more in the liver, which is calculated based on the blood concentration of human albumin (h-Alb). Human hepatocytes for the experiment were obtained from BD195 (Corning Incorporated, Tewksbury, MA, USA).
Male mice (n = 5 per group) were used for the experiments with the following characteristics: 19 to 23 weeks old on Day 0, body weights on Day 0 (19.3 to 22.3 g), and blood h-Alb Level (from 9.1 to 15.0 mg/mL).
MI-883 was applied in the following vehicle: corn oil (90%)/DMSO (5%)/PEG30 (5%) formulation of MI-883 2.5 mg/kg (1.5 mL) to treated animals. The same vehicle was used in the control group. MI-883 was applied via p.o. gavage using disposable plastic sondes (Fuchigami Kikai Co., Kyoto, Japan) at the dose of 2.5 mg/kg every day ([…] -day 0-Day 7).
The target volume of blood (200 μL) was collected from all subject animals under isoflurane anesthesia via the retro-orbital plexus/sinus using calibrated pipettes (Drummond Scientific Company, PA, USA) at each time point after 4 h of fasting. Isoflurane inhalation solution was also used at the terminal blood sampling. The livers were snap-frozen in two or more pieces in one tube in liquid nitrogen. These frozen liver samples were stored at −80 °C. Urine was directly collected from the urinary bladder using a syringe. Bile was directly collected from the gallbladder using a syringe.
Serum h-ALT1 concentration was determined based on an Enzyme-Linked ImmunoSorbent Assay (ELISA) developed by the Institute of Immunology Co., Ltd (Tokyo, Japan) (for details see Supplementary, Chapter 11).
The clinical chemistry analyzer (BioMajestyTM Series JCA-BM6050, JEOL Ltd., Tokyo, Japan) was used to measure the blood h-Alb. LipoSEARCH to determine the serum level of total cholesterol, triglyceride, chylomicron, VLDL, LDL, and HDL was performed by SkyLight Biotech (Akita, Japan). Serum h-ALT1 concentration was determined based on an Enzyme-Linked ImmunoSorbent Assay (ELISA) developed by the Institute of Immunology Co., Ltd. (Tokyo, Japan). SpectraMax® ABS Plus Microplate Readers (Molecular Devices LLC, San Jose, CA, USA) were used for this measurement.

[3] = first vehicle/MI-883 column pair
[4] = second vehicle/MI-883 column pair
[5] = 2.5 mg/kg per day, one week, n = 5
[6] = FigS15, humanized liver mice, individual animals
[7] = FigS15, plasma total, individual animals
[8] = FigS15, plasma, individual animals
[9] = FigS17, individual animals, relative to control
[10] = humanized Liver mice, human gene, relative to control, individual animals
[11] = humanized Liver mice, mouse gene, relative to control, individual animals

Q: What does the source list for `NC(=O)c1cc(Cn2cc(-c3c(-c4ccc(Cl)cc4)nc4cc(F)ccn34)nn2)ccc1Cl` [MI-883, 2-chloro-5-((4-(2-(4-chlorophenyl)-7-fluoroimidazo[1,2-a]pyridin-3-yl)-1H-1,2,3-triazol-1-yl)methyl)benzamide]?
A: ALP ([1]; HCD female): 64 and 60 and 66; ALT ([1]; HCD female): 52 and 44 and 50 and 65 and 53 and 31 and 37; AST ([1]; HCD female): 97 and 85 and 59 and 60 and 100 and 48; Albumin ([1]; HCD female): 29.13 and 29.02 and 28.37 and 27.41 and 25.72 and 27.39 and 28.99; Bilirubin ([1]; HCD female): 1.92 and 2.23 and 1.15 and 0.79 and 1.09 and 1.2; Fe ([1]; HCD female): 25.95 and 24.87 and 19.99 and 29.01 and 26.38 and 27.47 and 25.24; UA ([1]; HCD female): 74.13 and 68.35 and 69.17 and 60.17 and 117.85 and 58.32 and 32.43; Urea ([1]; HCD female): 5.81 and 6.85 and 7.72 and 6.07 and 8.19 and 6.12 and 7.88; ALP ([1]; HCD male): 60 and 53 and 64 and 50 and 42 and 46 and 69 and 45 and 43; ALT ([1]; HCD male): 335 and 154 and 210 and 103 and 48 and 36 and 40 and 194 and 61; AST ([1]; HCD male): 202 and 190 and 151 and 98 and 62 and 43 and 71 and 125 and 88; Albumin ([1]; HCD male): 25.95 and 26.89 and 26.71 and 27.24 and 27.46 and 26.93 and 28.1 and 27.95 and 27.85; Bilirubin ([1]; HCD male): 1.82 and 2.96 and 1.74 and 3.02 and 2.04 and 3.59 and 1.89 and 1.94; Fe ([1]; HCD male): 21.53 and 13.76 and 24.97 and 21.49 and 28.7 and 25.79 and 20.83 and 28.43 and 27.87; UA ([1]; HCD male): 56.8 and 93.42 and 54.01 and 55.84 and 44.35 and 31.12 and 35.14 and 37.35 and 25.57; Urea ([1]; HCD male): 7.34 and 6.71 and 7.14 and 5.73 and 5.13 and 5.97 and 6.54 and 7; liver weight (LW) and LW/BW ([1]; HCD, p.o. 5 mg/kg, five doses every other day): not after five doses; LDH ([1]; HCD, (sex not given)): 1.47 and 1.15 and 1.63 and 0.85 and 1.36 and 1.38 and 0.99 and 1.41 and 1.28; LDH ([1]; HCD, vehicle/MI-883 (sex not given)): 1.12 and 1.15 and 1.19 and 1.1 and 1.09; BW (Fig. 4g) [1, 3]: 26.3 and 24.9 and 24.8 and 24.3 and 24 and 23.2; Chol (Fig. 4h) [1, 3]: 3.83 and 3.39 and 3.78 and 3.72 and 3.46 and 3.54 and 3.66; Glu (Fig. 4h) [1, 3]: 13.29 and 13.05 and 14.81 and 13.6 and 14.89 and 13.61 and 13.46; HDL (Fig. 4h) [1, 3]: 2.476 and 2.431 and 2.259 and 2.337 and 2.161 and 2.202 and 2.297; LDL (Fig. 4h) [1, 3]: 1.12 and 1.15 and 1.19 and 1.1 and 1.09; LW (Fig. 4g) [1, 3]: 1.78 and 1.62 and 1.65 and 1.52 and 1.64 and 1.48; LW/BW (Fig. 4g) [1, 3]: 6.77 and 6.51 and 6.65 and 6.255 and 6.833 and 6.379; TG (Fig. 4h) [1, 3]: 1.189 and 1.059 and 1.137 and 1.521 and 2.113 and 1.22 and 1.433; triglyceride levels in females ([1]; second study (HCD), at the level of statistical significance): some increase; BW (Fig. 4g) [1, 4]: 30 and 29.4 and 30.6 and 30.9 and 33.4 and 29.7 and 26.5 and 28.4 and 26.8; Chol (Fig. 4h) [1, 4]: 5.16 and 3.99 and 5.8 and 3.44 and 4.89 and 4.88 and 4.18 and 4.72; Glu (Fig. 4h) [1, 4]: 13.25 and 13.05 and 16.4 and 12.86 and 18.52 and 15.35 and 11.72 and 18.14 and 17.74; HDL (Fig. 4h) [1, 4]: 3.01 and 2.484 and 3.335 and 2.267 and 3.073 and 3.039 and 2.781 and 3.388 and 2.988; LDL (Fig. 4h) [1, 4]: 1.47 and 1.15 and 1.63 and 0.85 and 1.36 and 1.38 and 0.99 and 1.41 and 1.28; LW (Fig. 4g) [1, 4]: 1.63 and 1.97 and 2.03 and 1.53 and 2.51 and 2.11 and 1.85 and 1.32 and 1.94; LW/BW (Fig. 4g) [1, 4]: 5.43 and 6.7 and 6.63 and 4.95 and 7.51 and 7.1 and 6.98 and 4.65 and 7.24; TG (Fig. 4h) [1, 4]: 0.993 and 0.808 and 0.849 and 0.608 and 0.516 and 0.697 and 0.709 and 0.93 and 0.706; liver enlargement (LW/BW ratio) in PXB humanized liver mice ([2]; 2.5 mg/kg every day, 7 days): did not observe significant liver enlargement; proliferative biomarkers MDM2, PCNA, FOXM1 in PXB humanized liver mice ([2]; 2.5 mg/kg every day, 7 days): no significant effects; human albumin or human ALT (h-ALT1) ([2]; 2.5 mg/kg per day, one week): did not observe any increase; LDL and HDL cholesterol plasma concentrations in PXB mice [2, 5]: tendency for a decrease in LDL and an increase in HDL; total cholesterol concentration in PXB mice [2, 5]: did not reach statistical significance; BW [2, 6]: 21.1 and 21.2 and 18.9 and 21.4; rel LW [2, 6]: 12.7 and 13.9 and 18.9 and 13.7 and 15.2; h-ALT1 ([2]; FigS15, plasma biochemistry, individual animals): 32.4 and 23.1 and 36 and 38.8 and 27.9; Cho [2, 7]: 59.5 and 63.3 and 87.8 and 100.6 and 69.3; TG [2, 7]: 79.5 and 114.8 and 91.5 and 67.5 and 118.2; CHO in Chylom [2, 8]: 0.4 and 0.8 and 0.7 and 0.6; CHO in HDL [2, 8]: 16 and 14.3 and 11.7 and 8 and 13.8; CHO in LDL [2, 8]: 26.1 and 26.5 and 51.9 and 65.5 and 32.2; CHO in VLDL [2, 8]: 17 and 21.7 and 23.6 and 26.5 and 22.7; TG in Chylo [2, 8]: 2.6 and 5 and 3.9 and 2.5 and 3.5; TG in HDL [2, 8]: 3.2 and 3.7 and 4.2 and 3.6 and 4.3; TG in LDL [2, 8]: 30.8 and 34.5 and 34.1 and 36.7 and 34; TG in VLDL [2, 8]: 43 and 71.6 and 49.3 and 24.6 and 76.4; ABCC4 mRNA (RT-qPCR in humanized liver mice) [2, 9]: 1.98 and 1.27 and 2.64 and 0.98 and 0.66; CYP2B6 mRNA (RT-qPCR in humanized liver mice) [2, 9]: 7.04 and 2.86 and 13.89 and 12.41 and 7.61; CYP3A4 mRNA (RT-qPCR in humanized liver mice) [2, 9]: 0.35 and 0.63 and 1.62 and 10.03 and 6.65; HMGCR1 mRNA (RT-qPCR in humanized liver mice) [2, 9]: 0.23 and 0.46 and 0.39 and 0.62 and 1.11; HMGCS2 mRNA (RT-qPCR in humanized liver mice) [2, 9]: 3.19 and 1.63 and 2.91 and 2.97 and 2.16; LDLR mRNA (RT-qPCR in humanized liver mice) [2, 9]: 1.63 and 0.66 and 1.69 and 2.23 and 2.34; SREBF1 mRNA (RT-qPCR in humanized liver mice) [2, 9]: 0.27 and 0.47 and 0.58 and 0.76 and 1.32; UGT1A1 mRNA (RT-qPCR in humanized liver mice) [2, 9]: 3.46 and 1.67 and 5.52 and 2.7 and 2.14; CYP2B6 mRNA in PXB humanized mice ([2]; Supplementary Fig. 17): upregulation; CYP3A4 mRNA in PXB humanized mice ([2]; Supplementary Fig. 17): have not significantly changed; also recorded: not statistically significant induction; Foxm1 RT-qPCR (Fig. 7d) [2, 10]: 1.35 and 2.21 and 1.02 and 0.71 and 2.23; MKI67 RT-qPCR (Fig. 7d) [2, 10]: 0.96 and 0.82 and 1.24 and 0.52 and 0.59; Foxm1 RT-qPCR (Fig. 7d) [2, 11]: 0.92 and 1.07 and 0.75 and 0.53 and 0.33; Mki67 RT-qPCR (Fig. 7d) [2, 11]: 1.24 and 0.62 and 1.46 and 0.36 and 0.17
